How the values were obtained:
ob/ob mouse = assay: Antidiabetic and hypolipidaemic effect in the ob/ob mouse; assay type: in vivo; conditions: for reduction of glycaemia: glycaemia 24 hours after the final administration
From the text: Mutations in laboratory animals and also different sensitivities to dietary regimens have allowed the development of animal models having non-insulin dependent diabetes and hyperlipidaemia associated with obesity and with resistance to insulin.
Genetic mice models (ob/ob) (Diabetes, 1982, 31 (1), 1-6) and Zucker (fa/fa) rats have been developed by various laboratories in order to understand the physiopathology of those diseases and test the effectiveness of new antidiabetic compounds (Diabetes, 1983, 32, 830-838).
The 10-week-old female ob/ob mouse (Harlan) is used for the in vivo tests. The animals are kept in a light-darkness cycle of 12 hours at 25° C. The mouse has a basal hyperglycaemia of 2 g/l. The animals are randomly selected in terms of their glycaemia to form groups of six. The compounds tested by the intraperitoneal route are dissolved in a mixture of dimethyl sulphoxide (10%) and solutol (15%) to be administered at 10 mg/kg in a volume of 2.5 ml/kg twice per day for four days. By the per os route, the compounds are tested at 30 mg/kg administered in a volume of 2.5 ml/kg of 1%, HEC twice per day for four days. The control groups receive the solvents under the same conditions as the treated groups. The activity of the products is evaluated by measuring glycaemia 24 hours after the final administration and by measuring body weight daily.

COC(=O)C(Cc1ccc(OCCn2c(=O)sc3cc(C(=O)c4ccccc4)ccc32)cc1)C(=O)OC [Example 18, Dimethyl 2-{4-[2-(6-benzoyl-2-oxo-1,3-benzothiazol-3(2H)-yl)-ethoxy]benzyl}malonate]
reduction of glycaemia (ob/ob mouse; 10 mg/kg i.p. twice per day for four days): 45%
reduction of glycaemia (ob/ob mouse; 30 mg/kg per os twice per day for four days): 43%

COC(=O)C(=Cc1ccc(OCCn2c(=O)sc3cc(NC(=O)c4ccccc4)ccc32)cc1)C(=O)OC [Example 76, Dimethyl 2-{4-[2-(6-(benzoylamino)-2-oxo-1,3-benzothiazol-3(2H)-yl)ethoxy]benzylidene}malonate]
melting point: 186 to 190 °C

COC(=O)C(=Cc1ccc(OCCn2c(=O)sc3cc(C(=O)Nc4ccccc4)ccc32)cc1)C(=O)OC [Example 84, Dimethyl 2-{4-[2-(6-(anilinocarbonyl)-2-oxo-1,3-benzothiazol-3(2H)-yl)ethoxy]benzylidene}malonate]
melting point: 102 to 105 °C

CN(CCOc1ccc(CC2SC(=O)NC2=O)cc1)c1ccccn1 (centres unmarked) [rosiglitazone, reference compound]
variation in body weight (ob/ob mouse; ob/ob mouse, in four days, body weight measured daily): +4%

Reference: patent publication US6919362B2, “Heterocyclic derivatives, preparation method and pharmaceutical compositions containing same” (Les Laboratoires Servier, priority 2000, dated 2005)
